The text below walks through data of paper PMC11181486, “Nonsymmetrically Substituted 1,1′-Biphenyl-Based Small Molecule Inhibitors of the PD-1/PD-L1 Interaction” (ACS Medicinal Chemistry Letters, 2024).

As usually defined, the solubility is the dissolved amount per volume that the medium holds. The IC50 is the concentration at which inhibition is half-maximal. A high value points to lower potency.

Where two headings read alike, the source gives them in different places.

One series has as its target T1, hPD-L1 (human PD-L1) (Homo sapiens, UniProt Q9NZQ7).
T1 construct: The human PD-L1 IgV domain (residues 18–134, C-terminal His-tag) was expressed and purified; His-tag (C); made in house
As to the kind of experiment: 1H NMR titration with hPD-L1. It is filed as binding. Particulars: molar ratio protein to compound 1:1. As to the method:
Representative molecules were evaluated for their interaction with PD-L1 by means of an ^1H NMR titration experiment.

Series [1] can be described thus: Solubility of the compounds (visual evaluation and A600 of dilutions). Particulars: for A600 measurement (averaged from 2 reps): absorbance at 600 nm, 96-well plate, blank 0.0472, values in parentheses unreliable (precipitate); for solubility: kinetic from dmso stock, dilutions from DMSO stock, visually evaluated. It is filed as physicochemical. As to the method:
compound was 500 nM). The dilutions were then visually evaluated according to the following […]
+++ clear solution, no precipitation
++ slight turbidity, no precipitate
+ visible turbidity, no precipitate.
+/- strong turbidity, no precipitation.
- visible precipitation and/or visible precipitation in the original 100% DMSO solution.
The dilutions prepared in this way were applied to a 96-well plate and the absorbance measured […]
at a wavelength of 600 nm.
Table S2, Blank of 10 Measurements.
Table S2. Solubility of the compounds

Series [2] deals with T2, PD-1/PD-L1 (Homo sapiens, UniProt Q9NZQ7). As to the kind of experiment: cell-based. More on the design: host or cells: PD-L1+ aAPC/CHO-K1 cells; PD-1 effector Jurkat cells. As to the method: The PD-1/PD-L1 immune checkpoint bioassay (PD-1/PD-L1 Bioassay, Promega) was conducted according to the manufacturer’s protocol. PD-L1+ aAPC/CHO-K1 cells were seeded at a density of […] in 100 μL of medium [Ham’s F12, 10% fetal bovine serum (FBS)] in 96-well white flat-bottomed plates and incubated overnight at 37 °C in the presence of 5% CO2. The next day, the medium was removed, and serial dilutions of small molecule inhibitors were added at 40 μL per well in assay buffer (RPMI1640 + 1% FBS + 1% DMSO). […] The cells were cocultured for 6 h at 37 °C with 5% CO2 followed by a 5 min equilibration at room temperature. Bio-Glo Reagent (Promega) was prepared and added at 80 μL per well. After a 15 min incubation at room temperature, luminescence was measured using a Tecan Spark microplate reader. Data are presented as fold induction of luminescence relative to DMSO-treated cells. EC50 values were calculated using the log(inhibitor) vs response variable slope (four-parameter) analysis model with GraphPad Prism software.
Target sequence in this assay (Q9NZQ7 19-290): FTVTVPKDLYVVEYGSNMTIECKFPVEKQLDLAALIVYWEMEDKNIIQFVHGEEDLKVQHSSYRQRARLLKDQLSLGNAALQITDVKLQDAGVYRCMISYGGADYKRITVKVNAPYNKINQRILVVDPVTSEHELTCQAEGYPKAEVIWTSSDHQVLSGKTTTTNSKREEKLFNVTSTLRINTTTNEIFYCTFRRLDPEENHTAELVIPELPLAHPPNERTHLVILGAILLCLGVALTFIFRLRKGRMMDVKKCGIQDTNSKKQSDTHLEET

In series [3] the target is T2, PD-1/PD-L1. As to the kind of experiment: Homogeneous time-resolved fluorescence (HTRF) PD-1/PD-L1 assay (CisBio kit). It counts as binding. More on the design: Tag1 or Tag2 (kit's undisclosed tag); purchased CisBio. Particulars: for remaining activity at 0.005 µM: 2 h, read-out: HTRF Fraction of the undissociated protein complex. The procedure: The certified CisBio kit was used to conduct the HTRF assay, adhering to the manufacturer’s guidelines. The assay setup comprised hPD-1, hPD-L1, anti-Tag1 tagged with Europium cryptate (HTRF donor), and anti-Tag2 tagged with XL665 (HTRF acceptor). The experiments utilized final concentrations of 5 nM hPD-L1 and 50 nM hPD-1 in a 20 μL total volume performed in triplicate. Per the CisBio instructions, all components were combined, the plate was incubated at ambient temperature for 2 h, and the TR-FRET (time-resolved fluorescence energy transfer) was carried out using the Tecan Spark 20M. The negatives in the acquired data were subtracted for background, the positives were standardized, and then the data were averaged.
of 50 mM of the compound. Samples were then diluted to 50 nM and used for measurements.
Target sequence in this assay (Q9NZQ7 19-238 limits assumed): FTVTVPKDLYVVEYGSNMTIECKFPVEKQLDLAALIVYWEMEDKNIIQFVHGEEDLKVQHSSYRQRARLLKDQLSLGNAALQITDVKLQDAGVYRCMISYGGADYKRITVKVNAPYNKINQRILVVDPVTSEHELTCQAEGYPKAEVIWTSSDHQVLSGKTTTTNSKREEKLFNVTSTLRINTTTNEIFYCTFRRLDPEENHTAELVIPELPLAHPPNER
Background: In TR-FRET formats the signal depends on donor and acceptor labels being close together.

The target of a further series is T3, hPD-1/hPD-L1 complex (Homo sapiens, UniProt Q9NZQ7).
T3 construct: The human PD-L1 IgV domain (residues 18–134, C-terminal His-tag) was expressed and purified; His-tag (C); made in house
As to the kind of experiment: PD-1/PD-L1 NMR-based antagonist-induced dissociation assay (AIDA). It counts as binding. Particulars: complex of hPD-1/hPD-L1 with compound, 1:1 molar ratio protein to compound. The procedure:
In addition, we performed a PD-1/PD-L1 NMR-based antagonist-induced dissociation assay (AIDA).[42],[43] The AIDA assay was performed by adding a slight molar excess of PD-L1 to PD-1, which causes ^1H NMR signals to broaden corresponding to complex formation (Figure 2). […] However, in Figure 2 (purple), these are obscured by the sharper NMR signals of monomeric PD-1 released from the PD-L1/PD-1 complex.
Figure 2 NMR-based AIDA assay showing that a compound displaces PD-1 from PD-L1.

Series [4] deals with T2, PD-1/PD-L1. More on the design: host or cells: PD-L1+ aAPC/CHO-K1 cells; PD-1 effector Jurkat cells. Particulars: Figure S2B; ref Koblish et al.; cited from earlier work.
Target sequence in this assay (Q9NZQ7 19-290): as the sequence (Q9NZQ7 19-290) above
Setting [5] is: PD-L1+ aAPC/CHO-K1 cells cocultured 6 h with PD-1 effector Jurkat cells, read-out: PD-1/PD-L1 blockade, NFAT reporter bioassay EC50.
The mark [6] stands for this setting: at the 5 nM concentration of the inhibitor, 5 nM hPD-L1, 50 nM hPD-1.

T1 sequence (Q9NZQ7 18-134): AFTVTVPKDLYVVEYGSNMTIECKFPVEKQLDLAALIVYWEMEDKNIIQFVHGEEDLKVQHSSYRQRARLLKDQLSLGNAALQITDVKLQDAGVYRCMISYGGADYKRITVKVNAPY
T3 sequence (Q9NZQ7 18-134, one chain of several): as the sequence (Q9NZQ7 18-134) above

Take `Cc1c(NC(=O)c2ccc(CNCCCO)cn2)cccc1-c1cccc(NC(=O)c2ccc(CN[C@@H](C)CO)cn2)c1C` [Compound 14]: the “effect on hPD-L1 1H NMR lines (broadening)” value (“effect on hPD-L1 1H NMR lines” below) at hPD-L1 (human PD-L1) was “oligomerization”. Besides, in series [1], the “A600 measurement (averaged from 2 reps)” value turned out to be 0.05315 and the solubility is above 500 µM.

With `Cc1c(NC(=O)c2ccc(CNCCO)cn2)cccc1-c1cccc(NC(=O)c2ccc(CNCCNS(C)(=O)=O)cn2)c1C` [Compound 16], in series [1], the “A600 measurement (averaged from 2 reps)” value is 0.0494 and the solubility is above 500 µM.

Take `Cc1c(NC(=O)c2ccc(CNCCCO)cn2)cccc1-c1cccc(NC(=O)c2ccc(CN(C)CCO)cn2)c1C` [Compound 7]: in series [1], the “A600 measurement (averaged from 2 reps)” value is reported as 0.3466 and the solubility is below 500 µM.

At PD-1/PD-L1 [2], `Cc1c(NC(=O)c2ccc(CNCCCO)cn2)cccc1-c1cccc(NC(=O)c2ccc(CN3CCC(O)CC3)cn2)c1C` [Compound 9] gave an EC50 above 0.18 µM. On PD-1/PD-L1 [2] (setting [5]), the EC50 was determined as 0.188 µM. The remaining activity at 0.005 µM at PD-1/PD-L1 [3] (setting [6]) came to 26%. In series [1], the “A600 measurement (averaged from 2 reps)” value came out at 0.09395 and the solubility was below 500 µM.

As to `Cc1c(NC(=O)c2ccc(CN[C@@H]3CCC[C@H]3O)cn2)cccc1-c1cccc(NC(=O)c2ccc(CN(C)CCO)cn2)c1C` [Compound 1], in series [1], the “A600 measurement (averaged from 2 reps)” value amounted to 0.5138 and the solubility is below 500 µM.

Regarding `Cc1c(COc2cc(OCc3cccc(C#N)c3)c(CN3C[C@H](O)C[C@@H]3C(=O)O)cc2Cl)cccc1-c1ccc2c(c1)OCCO2` [BMS-1166, reference compound], the “HTRF Fraction of the undissociated protein complex” value at PD-1/PD-L1 [3] (setting [6]) is 0.59.

In turn, `Cc1c(NC(=O)c2ccc(CNCCCO)cn2)cccc1-c1cccc(NC(=O)c2ccc(CN(CCO)CCO)cn2)c1C` [Compound 3] registered an EC50 at PD-1/PD-L1 [2] of around 0.2 µM. Further, the EC50 on PD-1/PD-L1 [2] (setting [5]) stood at 0.251 µM. Further, in series [1], the “A600 measurement (averaged from 2 reps)” value is 0.2786 and the solubility was below 500 µM.

As to `Cc1c(NC(=O)c2ccc(CNCCO)cn2)cccc1-c1cccc(NC(=O)c2ccc(CNCCO)cn2)c1C` [Cmpd A, reference compound], the EC50 on PD-1/PD-L1 [2] (setting [5]) was found to be 0.0147 µM. Moreover, the remaining activity at 0.005 µM at PD-1/PD-L1 [3] (setting [6]) came to 18%.

On to `COC(=O)[C@H](C)NCc1ccc(C(=O)Nc2cccc(-c3cccc(NC(=O)c4ccc(CN5CCCC5)cn4)c3C)c2C)nc1` [Compound 6], for which, in series [1], the “A600 measurement (averaged from 2 reps)” value amounted to 0.0627 and the solubility was below 500 µM.

Take `Cc1c(NC(=O)c2ccc(CNCCCO)cn2)cccc1-c1cccc(NC(=O)c2ccc(CN(C)C(CO)CO)cn2)c1C` [Compound 5]: on PD-1/PD-L1 [2], the EC50 is around 0.2 µM. Besides, the EC50 on PD-1/PD-L1 [2] (setting [5]) is 0.11 µM. For the same compound, in series [1], the “A600 measurement (averaged from 2 reps)” value is listed as 0.04735 and the solubility was below 500 µM.

As for `Cc1c(NC(=O)c2ccc(CNCCO)cn2)cccc1-c1cccc(NC(=O)c2ccc(CNCCCNS(C)(=O)=O)cn2)c1C.Cl.Cl.Cl.Cl` [Compound 17a], on hPD-L1 (human PD-L1), the “effect on hPD-L1 1H NMR lines” value is “oligomerization”. Besides, the EC50 at PD-1/PD-L1 [2] (setting [5]) came out at 0.0763 µM. For the same compound, it took 0.00306 µM to reach half-maximal inhibition on PD-1/PD-L1 [3] (IC50). Besides, at PD-1/PD-L1 [3] (5 nM inhibitor concentration), the “dissociation of the PD-1/PD L1 complex (HTRF)” value turned out to be 83% and the “undissociated complex in the HTRF assay” value was determined as 17%. Further, in series [1], the “A600 measurement (averaged from 2 reps)” value came to 0.2848 and the solubility is below 500 µM. The “AIDA rescue percentage of the PD-1 signal” value at hPD-1/hPD-L1 complex is given as 100%.

Take `Cc1c(NC(=O)c2ccc(CN[C@@H](C)CO)cn2)cccc1-c1cccc(NC(=O)c2ccc(CN(C)CCO)cn2)c1C` [Compound 2]: the EC50 on PD-1/PD-L1 [2] (setting [5]) was determined as 0.0218 µM. At PD-1/PD-L1 [3], it took 0.00146 µM to reach half-maximal inhibition (IC50). Moreover, the remaining activity at 0.005 µM at PD-1/PD-L1 [3] (setting [6]) was 42%. In addition, in series [1], the “A600 measurement (averaged from 2 reps)” value is recorded as 0.4023 and the solubility was below 500 µM.

`Cc1c(NC(=O)c2ccc(CN[C@@H]3CCC[C@H]3O)cn2)cccc1-c1cccc(NC(=O)c2ccc(CN(CCO)CCO)cn2)c1C` [Compound 4]: in series [1], the “A600 measurement (averaged from 2 reps)” value came out at 0.2271 and the solubility is below 500 µM.

In the case of `Cc1c(NC(=O)c2ccc(CN[C@@H](C)CO)cn2)cccc1-c1cccc(NC(=O)c2ccc(CN[C@@H]3CCC[C@H]3O)cn2)c1C` [Compound 13], in series [1], the “A600 measurement (averaged from 2 reps)” value turned out to be 0.1827 and the solubility was below 500 µM.

As to `Cc1c(NC(=O)c2ccc(CN(C)CCO)cn2)cccc1-c1cccc(NC(=O)c2ccc(CN(CCO)CCO)cn2)c1C` [Compound 8], in series [1], the “A600 measurement (averaged from 2 reps)” value was determined as 0.459 and the solubility is below 500 µM.

In the case of `Cc1c(Nc2nccc3cc(CN4CC[C@@H](O)C4)cnc23)cccc1-c1cccc(-c2nc3cc(CN4CC[C@@H](C(=O)O)C4)cc(C#N)c3o2)c1C` [INCBO86550], at PD-1/PD-L1 [4], the EC50 is 0.0214 µM.

Turning to `Cc1c(NC(=O)c2ccc(CNCCO)cn2)cccc1-c1cccc(NC(=O)c2ccc(CNCCCNS(C)(=O)=O)cn2)c1C` [Compound 17], the “effect on hPD-L1 1H NMR lines” value on hPD-L1 (human PD-L1) was “oligomerization”. The EC50 at PD-1/PD-L1 [2] (setting [5]) is 0.0658 µM. Moreover, in series [1], the “A600 measurement (averaged from 2 reps)” value came out at 0.2217 and the solubility is below 500 µM.

Regarding `Cc1c(NC(=O)c2ccc(CN[C@@H](C)CO)cn2)cccc1-c1cccc(NC(=O)c2ccc(CN(C)CCO)cn2)c1C.Cl.Cl.Cl` [Compound 2a], the EC50 at PD-1/PD-L1 [2] (setting [5]) is 0.025 µM. In series [1], the “A600 measurement (averaged from 2 reps)” value turned out to be 0.1517 and the solubility was below 500 µM.

On to `Cc1c(NC(=O)c2ccc(CNCCCO)cn2)cccc1-c1cccc(NC(=O)c2ccc(CN[C@@H]3CCC[C@H]3O)cn2)c1C` [Compound 12], for which, in series [1], the “A600 measurement (averaged from 2 reps)” value worked out at 0.0476 and the solubility was above 500 µM.

Turning to `Cc1c(NC(=O)c2ccc(CN[C@@H](C)CO)cn2)cccc1-c1cccc(NC(=O)c2ccc(CN3CCC(O)CC3)cn2)c1C` [Compound 10], the EC50 was above 0.18 µM on PD-1/PD-L1 [2] and 0.287 µM on PD-1/PD-L1 [2] (setting [5]). Moreover, at PD-1/PD-L1 [3] (setting [6]), the remaining activity at 0.005 µM was 30%. For the same compound, the “A600 measurement (averaged from 2 reps)” value in series [1] amounted to 0.1308. This compound also gave a solubility in series [1] below 500 µM.

As for `Cc1c(NC(=O)c2ccc(CN[C@@H]3CCC[C@H]3O)cn2)cccc1-c1cccc(NC(=O)c2ccc(CN3CCC(O)CC3)cn2)c1C` [Compound 11], on PD-1/PD-L1 [2], the EC50 was above 0.18 µM. In addition, the EC50 at PD-1/PD-L1 [2] (setting [5]) was 0.553 µM. Moreover, the remaining activity at 0.005 µM at PD-1/PD-L1 [3] (setting [6]) is 43%. In addition, in series [1], the “A600 measurement (averaged from 2 reps)” value amounted to 0.1117 and the solubility was below 500 µM.
